This passage reports T/C results from PubChem BioAssay AID330 (DTP/NCI, 2004).

This assay concerns P388 leukemia ip, CD2F1 mice, survival T/C. Description: NCI In Vivo Anticancer Drug Screen. Data for tumor model P388 Leukemia (intraperitoneal) in CD2F1 (CDF1) mice. The note with it: endpoint: median survival time, higher = longer survival. In a few lines: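 Mice carrying the transplanted tumor received test compound or vehicle. Survival was recorded in each group, and the value is the treated-group measurement divided by that of the vehicle-treated control group.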

[1] abbreviates: dose: 50.0 mg/kg/injection, schedule: Q01DX009 (ip), vehicle: Klucel (hydroxypropylcellulose) (HPC).
[2] abbreviates: dose: 100.0 mg/kg/injection, schedule: Q01DX009 (ip), vehicle: Klucel (hydroxypropylcellulose) (HPC).
The mark [3] stands for this setting: dose: 50.0 mg/kg/injection, schedule: Q01DX005 (ip), vehicle: saline with Tween-80.
The mark [4] stands for this setting: dose: 100.0 mg/kg/injection, schedule: Q01DX005 (ip), vehicle: saline with Tween-80.
The mark [5] stands for this setting: dose: 200.0 mg/kg/injection, schedule: Q01DX005 (ip), vehicle: saline with Tween-80.
Setting [6] is: dose: 50.0 mg/kg/injection, schedule: Q01DX009 (ip), vehicle: saline.
Where [7] appears, read: dose: 50.0 mg/kg/injection, schedule: Q01DX009 (ip), vehicle: saline with Tween-80.
[8] abbreviates: dose: 100.0 mg/kg/injection, schedule: Q01DX009 (ip), vehicle: saline with Tween-80.
Setting [9] is: dose: 60.0 mg/kg/injection, schedule: Q01DX005 (ip), vehicle: saline with Tween-80.
[10] abbreviates: dose: 120.0 mg/kg/injection, schedule: Q01DX005 (ip), vehicle: saline with Tween-80.
[11] abbreviates: dose: 240.0 mg/kg/injection, schedule: Q01DX005 (ip), vehicle: saline with Tween-80.

Where “and” joins values, the source holds several entries; their conditions need not be identical. Identical values can stand only once. Inconclusive results and toxic doses are left out. Square brackets hold non-standard residues; d marks the D form. Peptide text beside a SMILES is read from it. Ac5c = NC1(C(=O)O)CCCC1; Sar = CNCC(=O)O

Consider `CN(C)N=Nc1ccc(S(N)(=O)=O)cc1`, for which the T/C is, setting by setting: (dose: 25.0 mg/kg/injection, schedule: Q01DX009 (ip), vehicle: Klucel (hydroxypropylcellulose) (HPC)) 93 % of control; under setting [1], 114 % of control; under setting [2], 100 % of control.
In the case of `CCOC(=O)C(N)CSC` (configuration not stated), the T/C (dose: 50.0 mg/kg/injection, schedule: Q01DX009 (ip), vehicle: water) is 97 % of control; the T/C (dose: 200.0 mg/kg/injection, schedule: Q01DX009 (ip), vehicle: water) is 103 % of control; the T/C (dose: 400.0 mg/kg/injection, schedule: Q01DX009 (ip), vehicle: water) was 106 % of control.
Regarding `CCOC(=O)c1cc2c(nn3c(C)cccc23)n(CC)c1=N`, the T/C runs as follows: (dose: 3.12 mg/kg/injection, schedule: Q01DX001 (ip), vehicle: saline) 100 % of control and 101 % of control; (dose: 6.25 mg/kg/injection, schedule: Q01DX001 (ip), vehicle: saline) 101 % of control and 105 % of control; (dose: 12.5 mg/kg/injection, schedule: Q01DX001 (ip), vehicle: saline) 100 % of control and 98 % of control; (dose: 25.0 mg/kg/injection, schedule: Q01DX001 (ip), vehicle: saline) 103 % of control and 93 % of control.
For `NC(Cc1ccc(O)cc1)C(=O)N/N=C/c1ccccc1O` (configuration not stated), the T/C is, setting by setting: under setting [3], 92 % of control; under setting [4], 90 % of control; under setting [5], 113 % of control.
On to `O=C(O)C1(NO)CCCC1`, for which the T/C is 100 % of control (dose: 100.0 mg/kg/injection, schedule: Q04DX003 (ip), vehicle: saline); 118 % of control (dose: 200.0 mg/kg/injection, schedule: Q04DX003 (ip), vehicle: saline); 95 % of control (dose: 400.0 mg/kg/injection, schedule: Q04DX003 (ip), vehicle: saline).
With `Oc1ccc(O)c(/C=N/N=C/c2cc(O)ccc2O)c1`, the T/C was 97 % of control (dose: 50.0 mg/kg/injection, schedule: Q01DX005 (ip), vehicle: Klucel (hydroxypropylcellulose) (HPC)); 97 % of control (dose: 100.0 mg/kg/injection, schedule: Q01DX005 (ip), vehicle: Klucel (hydroxypropylcellulose) (HPC)); 91 % of control (dose: 200.0 mg/kg/injection, schedule: Q01DX005 (ip), vehicle: Klucel (hydroxypropylcellulose) (HPC)).
As to `COc1cccc2c1C(=O)c1c(O)c3c(c(O)c1C2=O)CC(O)(C(C)=O)CC3OC1CC(NC(=O)C(F)(F)F)C(OC(=O)c2ccc([N+](=O)[O-])cc2)C(CNC(=O)C(F)(F)F)O1` (configuration not stated), the T/C reads like this: (dose: 3.13 mg/kg/injection, schedule: Q04DX003 (ip), vehicle: distilled water + Tween-80) 92 % of control; (dose: 6.25 mg/kg/injection, schedule: Q04DX003 (ip), vehicle: distilled water + Tween-80) 100 % of control; (dose: 12.5 mg/kg/injection, schedule: Q04DX003 (ip), vehicle: distilled water + Tween-80) 96 % of control; (dose: 25.0 mg/kg/injection, schedule: Q04DX003 (ip), vehicle: distilled water + Tween-80) 96 % of control; (dose: 50.0 mg/kg/injection, schedule: Q04DX003 (ip), vehicle: distilled water + Tween-80) 100 % of control.
As to `COc1cccc2c1C(=O)c1c(O)c3c(c(O)c1C2=O)CC(O)(C(C)NCCCO)CC3OC1CC(N)C(O)C(C)O1` (configuration not stated), the T/C is, setting by setting: (dose: 1.5 mg/kg/injection, schedule: Q01DX009 (ip), vehicle: water) 111 % of control; (dose: 24.0 mg/kg/injection, schedule: Q01DX009 (ip), vehicle: water) 168 % of control and 172 % of control; (dose: 48.0 mg/kg/injection, schedule: Q01DX009 (ip), vehicle: water) 173 % of control.
As to `O=c1c2c(nc3n1CCSCC3)NCCC2`, the T/C runs as follows: (dose: 100.0 mg/kg/injection, schedule: Q04DX002 (ip), vehicle: Klucel (hydroxypropylcellulose) (HPC)) 104 % of control; (dose: 200.0 mg/kg/injection, schedule: Q04DX002 (ip), vehicle: Klucel (hydroxypropylcellulose) (HPC)) 98 % of control; (dose: 400.0 mg/kg/injection, schedule: Q04DX002 (ip), vehicle: Klucel (hydroxypropylcellulose) (HPC)) 100 % of control.
Turning to `O=C(NCCCl)Oc1c(Cl)cc(Cl)cc1Cl`, the T/C is, setting by setting: (dose: 12.5 mg/kg/injection, schedule: Q01DX005 (ip), vehicle: Klucel (hydroxypropylcellulose) (HPC)) 106 % of control; (dose: 25.0 mg/kg/injection, schedule: Q01DX005 (ip), vehicle: Klucel (hydroxypropylcellulose) (HPC)) 104 % of control.
On to `CNCC(=O)NC1(C(=O)O)CCCC1` (H-[Sar]-[Ac5c]-OH), for which the T/C by setting is: under setting [6], 100 % of control; (dose: 100.0 mg/kg/injection, schedule: Q01DX009 (ip), vehicle: saline) 94 % of control; (dose: 200.0 mg/kg/injection, schedule: Q01DX009 (ip), vehicle: saline) 109 % of control.
As for `O=C1NCCCCCC1S(=O)c1ccccc1` (configuration not stated), the T/C reads like this: under setting [3], 103 % of control; under setting [4], 96 % of control; under setting [5], 101 % of control.
As to `Cc1cc(Cl)ccc1OCC1OC(=O)C(C)(C)O1` (configuration not stated), the T/C is 100 % of control under setting [1]; 100 % of control under setting [2]; 101 % of control (dose: 200.0 mg/kg/injection, schedule: Q01DX009 (ip), vehicle: Klucel (hydroxypropylcellulose) (HPC)).
With `Cc1ccc2nc(-c3ccc(CSC(=N)N)cc3)oc(=O)c2c1`, the T/C was 93 % of control under setting [7] and 89 % of control under setting [8].
Regarding `CCN(CC)CCN1C=CC(=C2C(=O)c3ccccc3C2=O)C=C1`, the T/C (dose: 60.0 mg/kg/injection, schedule: Q01DX005 (ip), vehicle: Klucel (hydroxypropylcellulose) (HPC)) is 99 % of control; the T/C (dose: 120.0 mg/kg/injection, schedule: Q01DX005 (ip), vehicle: Klucel (hydroxypropylcellulose) (HPC)) was 101 % of control; the T/C (dose: 240.0 mg/kg/injection, schedule: Q01DX005 (ip), vehicle: Klucel (hydroxypropylcellulose) (HPC)) is 99 % of control.
As for `FC(F)(F)c1ccc(C(Nc2nncs2)Nc2nncs2)cc1`, the T/C was 93 % of control under setting [3], 96 % of control under setting [4] and 105 % of control under setting [5].
For `COC(=O)c1nnn(-c2ccccc2C(C)C)c1C(=O)c1ccccc1`, the T/C is 94 % of control under setting [9], 109 % of control under setting [10] and 104 % of control under setting [11].
For `O=c1[nH]c(=O)c2nc(-c3cccnc3)cnc2[nH]1`, the T/C under setting [6] is 103 % of control and 120 % of control.
As to `CCOC(=O)c1ccc(-n2c(C)nc3cc(Cl)ccc3c2=O)cc1`, the T/C under setting [7] is 104 % of control; the T/C under setting [8] is 98 % of control; the T/C (dose: 200.0 mg/kg/injection, schedule: Q01DX009 (ip), vehicle: saline with Tween-80) is 98 % of control.
Take `Cc1ccc(OP(=O)(Oc2ccc(C)cc2)Oc2ccc(C)cc2)cc1.Cc1ccc(OP(=O)(Oc2ccc(C)cc2)Oc2ccc(C)cc2)cc1.Cc1ccc(OP(=O)(Oc2ccc(C)cc2)Oc2ccc(C)cc2)cc1.Cc1ccc(OP(=O)(Oc2ccc(C)cc2)Oc2ccc(C)cc2)cc1.[Ni+2].[O-][Cl+3]([O-])([O-])O`: the T/C was 100 % of control (dose: 20.0 mg/kg/injection, schedule: Q01DX001 (ip), vehicle: Klucel (hydroxypropylcellulose) (HPC)); 106 % of control (dose: 40.0 mg/kg/injection, schedule: Q01DX001 (ip), vehicle: Klucel (hydroxypropylcellulose) (HPC)); 97 % of control (dose: 80.0 mg/kg/injection, schedule: Q01DX001 (ip), vehicle: Klucel (hydroxypropylcellulose) (HPC)).
`CCNC(=O)NS(=O)(=O)c1ccc(Sc2ccc(Cl)cc2)nc1`: the T/C was 102 % of control under setting [9], 105 % of control under setting [10] and 95 % of control under setting [11].
